# Tests used:
# [1] = test system: MiaPaca-2 pancreatic tumor xenograft; assay: Human pancreatic tumor xenograft in nude mice, subcutaneous treatment; format: in vivo
# Protocol: The test was carried out comparing the anti-tumor activity of cortexolone 17α-benzoate at two different dosages (8.0 mg/kg, corresponding approximately at 230 μM, and 40 mg/kg, corresponding approximately at 1150 μM), versus the vehicle (i.e. 0.4% (v/v) tween 80 and 0.5% (w/v) carboxymethylcellulose in normal saline) and versus the comparator Cyproterone Acetate at two different dosages (7.4 mg/kg and 37 mg/kg).
# 1×10^6 MiaPaca-2 cells suspended in matrigel were subcutaneously injected into 6 week old athymic nude mice.
# The treatment with the tested compounds, with the vehicle and with the comparative compound, was initiated after the tumor volume has reached 50 mm3 after transplantation. All compounds were injected 100 μL/mouse subcutaneously of low dose solution (approximately 230 μM) or 100 μL/mouse of high dose solution (approximately 1150 μM) of cortexolone 17α-benzoate, vehicle and cyproterone acetate, respectively. Compounds and controls were administered subcutaneously daily for 28 days.
# Tumors were measured every 4 days with a digital caliper.
# The results are plotted in FIG. 1 as average change in tumor volume relative to the start of treatment. Tumor volume was calculated according to the formula 0.5236(r1)^2(r2) where r1<r2.
# The test was carried out comparing the anti-tumor activity of cortexolone 17α-valerate-21-propionate (CB-03-10) at two different dosages (approximately 8.6 mg/kg and 43 mg/kg) versus the vehicle (i.e. 0.4% (v/v) tween 80 and 0.5% (w/v) carboxymethylcellulose in normal saline) and versus the comparator Cyproterone Acetate at two different dosages (7.4 mg/kg and 37 mg/kg).
# The treatment with the tested compound, with the vehicle and with the comparative compound was initiated after the tumor has reached a volume of 50 mm3 after implantation, injecting subcutaneously 100 μL/mouse of low dose solution (approximately 230 μM) or 100 μL/mouse of high dose solution (approximately 1150 μM) of cortexolone 17α-valerate-21-propionate (CB-03-10), vehicle and cyproterone acetate, respectively. Compounds and controls were administered subcutaneously daily for 28 days.
# The results are plotted in FIG. 2 as average change in tumor volume relative to the start of treatment. Tumor volume was calculated according to the formula 0.5236(r1)^2(r2) where r1<r2.
# CPA a well-known anti-androgen was used as control. Briefly 1×10^6 MiaPaca2 cells suspended in matrigel were subcutaneously (SC) injected into 6 week old male athymic nude mice. Tumors were measured every 4 days with a digital caliper. Tumor volume was calculated according to the formula: 0.5236(r1)2(r2) where r1<r2. Treatment with CB-03-10 and controls compounds was initiated after the tumor had reached 50 mm3. Compounds diluted in DMSO/2-hydroxypropyl b-cyclodextrin (vehicle) were injected subcutaneously (SC) daily (100 μL/mouse) at the concentration of 40 mg/Kg daily for 28 consecutive days.
# Caspase 3/7 = assay: Caspase activity assay in MiaPaca2 cells; format: cell-based; settings: 8, 24, 48 hours, FIG. 11
# Protocol: To better analyze the phenomenon the enzymatic activity of Caspase 8 (initiator caspase for Extrinsic Pathway) and Caspase 9 (initiator caspase for Intrinsic Pathway) and of Caspases 3 and 7 (effector caspases) were measured.
# [2] = test system: LNCaP prostate cancer xenograft; assay: Human prostate cancer xenograft in nude mice, oral treatment; format: in vivo
# Protocol: 3×10^6 LNCaP cells suspended in matrigel were subcutaneously injected (on the right flank) into 6 week old male athymic nude mice. Tumors were measured as described above. Treatment with CB-03-10 and controls compounds was initiated after the tumor had reached 50 mm3. […] Oral dosing was daily (100 mg/Kg in 200 μL/mouse) for 28 consecutive days. Results were plotted as average change in tumor volume relative to the start of treatment.
# [3] = In vivo pharmacokinetic in mouse plasma; settings: mice; iv 20 mg/kg, SC 40 mg/kg, PO 40 mg/kg; after 1 hour
# Protocol: The pharmacokinetic of CB-03-10 was evaluated in plasma of mice after intravenous (IV), subcutaneous (SC) and oral administration (PO).
# Mice (3 per group) were administered with the following doses, blood was collected at the indicated times. Plasma samples were analyzed by HPLC-MS/MS.
# MiaPaca2 = settings: human, 3 days
# MCF7 = assay: In vitro proliferation / cytotoxic assay on breast cancer cells (cell titer glo); settings: human, 3 days
# Protocol: For the cytotoxic assay: cells seeded in 96 well flat bottom culture plates in media containing charcoal stripped serum. After 24 hours test compounds were added to the cells. DMSO was used as the vehicle negative control and RU486 as the positive control. After 72 hours incubation cell were harvested, lysed and viability determined using the cell titer glow assay for viability.
# Caspases 8, 9 and 3/7 = assay: Caspase activity assay in LNCaP prostate cancer cells; format: cell-based; settings: 24 hours, FIG. 12
# Protocol: After 24 hours test compounds were added to cells, Gemcitabine (a known pancreatic cancer chemotherapeutic agent) and DMSO were used as positive and negative control, respectively. After 8, 24, & 48 hours incubation with test compounds, cells were lysed in buffer containing the caspase 3/7 or 8 or 9 substrate and a stable luciferase in proprietary buffers. The lysates were transferred to white opaque plates before measuring luminescence in a Tecan S afire instrument. Parallel plates treated identically, were used to determine viable cells. All caspase activities were corrected for the number of viable cells.
# Same assay was repeated using LNCaP prostate cancer cell lines (FIG. 12). […] The results are shown in FIG. 12 at 24 hours incubation when the caspase activities peaked.
# Panc1 = settings: human, 3 days
structure (smiles),measurement,setting,value
"CCCCC(=O)O[C@]1(C(=O)COC(=O)CC)CC[C@H]2[C@@H]3CCC4=CC(=O)CC[C@]4(C)[C@H]3CC[C@@]21C [CB-03-10, cortexolone 17α-valerate-21-propionate]",pancreatic tumor size increase relative to initial tumor size,"[1]; Example 6, high dose approximately 43 mg/kg (1150 μM, 100 μL/mouse) SC daily 28 days, for the time of treatment",less than 5 fold
same,pancreatic tumor size increase relative to the initial size,"[1]; Example 22, 40 mg/Kg SC daily 28 days, during the treatment period",less than 5 fold
same,Median survival,"[1]; Example 22, 40 mg/Kg SC daily 28 days, vehicle 60 days",70 days
same,tumor size increase,"[1]; Example 22, 14 days after treatment was stopped, vehicle 14-fold",6 fold
same,in vivo antitumor activity compared with Cyproterone Acetate,"[1]; Examples 5 and 6, FIG. 3, same animal model",antitumor activity higher than Cyproterone Acetate
same,Caspase 3/7 induction / caspase activation profile,Caspase 3/7,already at 8 hours at and a really high level after 48 hours incubation
same,"average tumor volume, times smaller than in the vehicle group",[2]; 6 weeks after treatment was stopped,3.6 times
same,prostate tumor size increase after treatment was stopped,"[2]; oral 100 mg/Kg daily 28 days, after stop",5 fold
same,tumor volume increase relative to start of treatment,"[2]; oral 100 mg/Kg daily, treatment period of 28 days, negative control 10-fold",2 fold
same,statistical significance of tumor growth versus vehicle,"[2]; oral gavage, FIG. 16",statistically significantly different from day 7 up to day 60
same,plasma level of intact compound,[3],undetectable
same,TI on Resting PBMC,MiaPaca2,3
same,TI on Stimulated PBMC,MiaPaca2,3
same,Therapeutic Index = IC50 resting PBMC/IC50 cancer cell,MiaPaca2,3
same,Therapeutic Index = IC50 stimulated PBMC/IC50 cancer cell,MiaPaca2,3
same,Therapeutic Index = IC50 resting PBMC/IC50 cancer cell,MCF7,3
same,Therapeutic Index = IC50 stimulated PBMC/IC50 cancer cell,MCF7,3
same,Initiator (8 and 9) and Effector (3/7) caspase activities,"Caspases 8, 9 and 3/7",induced Initiator (8 and 9) and Effector (3/7) caspase activities better than Enzalutamide
same,TI on Resting PBMC,Panc1,2
same,TI on Stimulated PBMC,Panc1,2
same,Therapeutic Index = IC50 resting PBMC/IC50 cancer cell,Panc1,2
same,Therapeutic Index = IC50 stimulated PBMC/IC50 cancer cell,Panc1,2
